Series [1] concerns A-549 lung epithelial cell line. In words: Alamar Blue in vitro cytotoxicity. The format is cell-based. The procedure: The oligomers were screened for in vitro cytotoxicity following 18-24 hr exposure using the metabolic indicator Alamar Blue™ (Alamar Biosciences, Sacramento, Calif.) against the A-549 lung epithelial cell line according to the manufacturer's instructions. Briefly, flat-bottom polystyrene microtiter plates were seeded with 2×10^4 cells in Ham's F-12 medium (Invitrogen) containing 10% fetal bovine serum (FBS) and were incubated ˜48 hr at 37° C., until cells were confluent. Medium was then aspirated off and replaced with medium lacking FBS. The oligomers were added to the first row (final concentration 5 mg/ml) and serial 2-fold dilutions were prepared across the plate. Plates were incubated 18-24 hr at 37° C.; medium containing test compounds was aspirated off, wells were washed once with PBS and fresh medium (lacking FBS and phenol red) was added. Alamar Blue™ was added (final concentration 30%); cells were incubated 4 hr and absorbance was read at 570 nm. The IC50 was then calculated.
(§1) Poly(trimethylene dipyridine-alt-5-oxanonane) having a molecular weight 0.5-1 kDa was tested in A-549 lung epithelial cells to determine its IC50 value in comparison with tobramycin, a conventional antibiotic. In addition, the minimum inhibitory concentrations for the two compounds were determined in vitro for a number of bacterial strains and species. The results are as shown below, where all concentrations are expressed as μg/mL: […]

The subject of another series is Burkholderia cepacia. The experiment in a line: MIC broth dilution assay. The format is cell-based. The note with it: B. cepacia, read-out: minimum inhibitory concentration. The method, then: (§2) Both about 1-10 kDa fractions of poly(trimethylene dipyridine-alt-octane chloride) (TMDP-C8) and about 1.2 kDa poly(trimethylene dipyridine-alt-2,7-dihydroxyoctane chloride) (TMDP-C8(OH)2) have broad, though not identical antimicrobial activity.
as §1
For orientation: In broth dilution the organism is exposed to a series of concentrations in liquid medium.

In another series the test system is Pseudomonas aeruginosa. In words: MIC broth dilution assay. The format is cell-based. The procedure:
as §2, §1

The next series concerns Staphylococcus aureus. In words: MIC broth dilution assay. The format is cell-based. The note with it: S. aureus, read-out: minimum inhibitory concentration. The procedure: as §2, §1
The test system of series [2] is Stenotrophomonas maltophilia. The experiment in a line: MIC broth dilution assay. The format is cell-based. The following applies: S. maltophilia, read-out: minimum inhibitory concentration. The method, then:
as §2, §1

The next series deals with P. aeruginosa. The following applies: within 11 passages, published studies; cited from earlier work.
A further series concerns MRSA. The following applies: over 15 passages, published studies; cited from earlier work.
Details of series [3]: species or system pigs. The following applies: pig, in vivo. The method, then: The non-substituted C8-containing compound TMDP-C8 (about 1-10 kDa) was tested at 10 mg/ml for its ability to reduce S. aureus infections introduced into dermal wounds in pigs.

≈ marks a conversion by molar mass, not a printed value.

The IC50 is the concentration that inhibits the measured activity by half. A high value points to weaker potency. Consider `NC[C@H]1O[C@H](O[C@H]2[C@H](O)[C@@H](O[C@H]3O[C@H](CO)[C@@H](O)[C@H](N)[C@H]3O)[C@H](N)C[C@@H]2N)[C@H](N)C[C@@H]1O` [Tobramycin, tobramycin], for which the IC50 in series [1] (Homo sapiens, A549, A-549 lung epithelial cells) was determined as 5000 µg/mL (≈ 10700 µM). Moreover, the MIC in the series with Burkholderia cepacia is > 50 µg/mL; with Pseudomonas aeruginosa (Pseudomonas aeruginosa, P. aeruginosa G38, read-out: minimum inhibitory concentration), 0.39 µg/mL (≈ 0.834 µM); with Staphylococcus aureus, 0.195 µg/mL (≈ 0.417 µM); in series [2] it was 25 µg/mL (≈ 53.5 µM). In the series with Pseudomonas aeruginosa (P. aeruginosa PA01), the minimum inhibitory concentration was 0.39 µg/mL (≈ 0.834 µM).
`CCn1cc(C(=O)O)c(=O)c2cc(F)c(N3CCNCC3)cc21` [norfloxacin]: the “rise of MIC” value in the series on P. aeruginosa is recorded as 10 fold; in the series with MRSA it was 85 fold.
Take gentamicin: the “rise of MIC” value in the series with P. aeruginosa is on record as 190 fold.
Take “poly(trimethylene dipyridine-alt-octane chloride) [TMDP-C8]”: the “effect on wound healing” value in series [3] is reported as “did not inhibit or retard healing”.
On to “poly(trimethylene dipyridine-alt-octane) [TMDP-C8 1-3k]”, for which, in series [1], the “IC50, In vitro Cytotoxicity of Compounds Tested in First Rat Lung Study” value came out at 322 µg/mL.
Same read-out and setting: with “poly(trimethylene dipyridine-alt-octane) [TMDP-C8 >1k]” the figure was 30 µg/mL.

Source of the values: patent publication US20060002887A1, “Ionene oligomers and polymers” (Genzyme Corporation, priority 2002, published 2006).
